Reference: article PMC11003488 (Journal of Enzyme Inhibition and Medicinal Chemistry, 2023)
Like-named read-outs stand apart in the source and are kept apart here.

Experiments:
[1] = tested on: 786-0; test: NCI-60 SRB growth inhibition, one-dose and five-dose; format: cell-based; conditions: Homo sapiens
[2] = tested on: SR; test: as above; format: cell-based; conditions: Homo sapiens
[3] = tested on: UACC-62; test: as above; format: cell-based; conditions: Homo sapiens
[4] = tested on: A498; test: as above; format: cell-based; conditions: Homo sapiens
[5] = tested on: HOP-92; test: as above; format: cell-based; conditions: Homo sapiens
[6] = tested on: SF-268; test: as above; format: cell-based; conditions: Homo sapiens
[7] = tested on: SW-620; test: as above; format: cell-based; conditions: Homo sapiens
[8] = tested on: BT-549; test: as above; format: cell-based; conditions: Homo sapiens
[9] = tested on: NCI-H23; test: as above; format: cell-based; conditions: Homo sapiens
[10] = tested on: OVCAR-3; test: as above; format: cell-based; conditions: Homo sapiens
[11] = tested on: SN12C; test: as above; format: cell-based; conditions: Homo sapiens
[12] = tested on: RPMI-8226; test: as above; format: cell-based; conditions: Homo sapiens
[13] = tested on: SNB-19; test: as above; format: cell-based; conditions: Homo sapiens
[14] = tested on: M14; test: as above; format: cell-based; conditions: Homo sapiens
[15] = tested on: PC-3; test: as above; format: cell-based; conditions: Homo sapiens
[16] = tested on: NCI 60-cell line panel (full panel); test: NCI-60 SRB growth inhibition, full panel mean / MG-MID; format: cell-based, human; conditions: for GI50: Homo sapiens, 60 cell
[17] = tested on: HCT-116; test: NCI-60 SRB growth inhibition, one-dose and five-dose; format: cell-based; conditions: Homo sapiens
[18] = tested on: NCI-H460; test: as above; format: cell-based; conditions: Homo sapiens
[19] = tested on: TK-10; test: as above; format: cell-based; conditions: Homo sapiens
[20] = tested on: HL-60(TB); test: cells; format: cell-based; conditions: Homo sapiens
[21] = tested on: HCT-15; test: NCI-60 SRB growth inhibition, one-dose and five-dose; format: cell-based; conditions: Homo sapiens
[22] = tested on: K-562; test: as above; format: cell-based; conditions: Homo sapiens
[23] = tested on: CAKI-1; test: as above; format: cell-based; conditions: Homo sapiens
[24] = tested on: EKVX; test: as above; format: cell-based; conditions: Homo sapiens
[25] = tested on: A549/ATCC; test: as above; format: cell-based; conditions: Homo sapiens
[26] = tested on: OVCAR-5; test: as above; format: cell-based; conditions: Homo sapiens
[27] = tested on: OVCAR-8; test: as above; format: cell-based; conditions: Homo sapiens, OVCAR-8, read-out: percent growth inhibition
[28] = tested on: SNB-75; test: as above; format: cell-based; conditions: Homo sapiens
[29] = tested on: IGROV1; test: as above; format: cell-based; conditions: Homo sapiens
[30] = tested on: NCI-H522; test: as above; format: cell-based; conditions: Homo sapiens
[31] = tested on: HCC-2998; test: as above; format: cell-based; conditions: Homo sapiens
[32] = tested on: RXF 393; test: as above; format: cell-based; conditions: Homo sapiens
[33] = tested on: MCF7; test: as above; format: cell-based; conditions: Homo sapiens
[34] = tested on: HS 578 T; test: as above; format: cell-based; conditions: Homo sapiens
[35] = tested on: U251; test: as above; format: cell-based; conditions: Homo sapiens
[36] = tested on: NCI-H322M; test: as above; format: cell-based; conditions: Homo sapiens
[37] = tested on: SF-539; test: as above; format: cell-based; conditions: Homo sapiens
[38] = tested on: T-47D; test: as above; format: cell-based; conditions: Homo sapiens, T47D
[39] = tested on: SK-MEL-2; test: as above; format: cell-based; conditions: Homo sapiens, SK-MEL-2, read-out: percent growth inhibition
[40] = tested on: MOLT-4; test: as above; format: cell-based; conditions: Homo sapiens
[41] = tested on: SK-MEL-28; test: as above; format: cell-based; conditions: Homo sapiens
[42] = tested on: NCI/ADR-RES; test: as above; format: cell-based; conditions: Homo sapiens
[43] = read-out: percent growth inhibition

O=C(/C=C/c1cccnc1)c1cccc(NCc2csc3ccccc23)c1 [Compound 5d, (E)-1–(3-((benzo[b]thiophen-3-ylmethyl)amino)phenyl)-3-(pyridin-3-yl)prop-2-en-1-one]
GI50 ([1]; 786-0): 8.65 µM | inhibition at 10 µM ([1]; 786-0, read-out: percent growth inhibition): 182% | GI50 [2]: 2.51 µM | GI50 ([3]; UACC-62): 3.75 µM | inhibition at 10 µM ([3]; UACC-62, read-out: percent growth inhibition): 151% | GI50 ([4]; A498): 12.1 µM | inhibition at 10 µM ([4]; A498, read-out: percent growth inhibition): 36.5% | GI50 ([5]; HOP-92): 10.2 µM | inhibition at 10 µM ([5]; HOP-92, read-out: percent growth inhibition): 39.4% | GI50 ([6]; SF-268): 12 µM | inhibition at 10 µM ([6]; SF-268, read-out: percent growth inhibition): 69.7% | GI50 ([7]; SW-620): 1.84 µM | inhibition at 10 µM ([7]; SW-620, read-out: percent growth inhibition): 166% | GI50 ([8]; BT-549): 2.75 µM | inhibition at 10 µM ([8]; BT-549, read-out: percent growth inhibition): 174% | GI50 ([9]; NCI-H23): 3.94 µM | inhibition at 10 µM ([9]; NCI-H23, read-out: percent growth inhibition): 139% | GI50 ([10]; OVCAR-3): 3.19 µM | inhibition at 10 µM ([10]; OVCAR-3, read-out: percent growth inhibition): 157% | GI50 [11]: 3.02 µM | inhibition at 10 µM [11, 43]: 128% | GI50 ([12]; RPMI-8226): 1.99 µM | inhibition at 10 µM ([12]; RPMI-8226, read-out: percent growth inhibition): 119% | GI50 ([13]; SNB-19): 3.86 µM | inhibition at 10 µM ([13]; SNB-19, read-out: percent growth inhibition): 134% | GI50 ([14]; M14): 4.14 µM | inhibition at 10 µM ([14]; M14, read-out: percent growth inhibition): 129% | GI50 ([15]; PC-3): 3.76 µM | inhibition at 10 µM ([15]; PC-3, read-out: percent growth inhibition): 99.2% | GI50 ([16]; read-out: Full panel GI50 mean): 4.74 µM | GI50 ([16]; read-out: Full panel MG-MID GI50): 4.74 µM | Full panel Mean GI % ([16]; mean over NCI-60 panel, single dose 10 µM): 120.02% | GI50 ([17]; HCT-116, HCT-116, five-dose screening): 1.82 µM | inhibition at 10 µM ([17]; HCT-116, read-out: percent growth inhibition): 195% | GI50 ([18]; NCI-H460): 4.98 µM | inhibition at 10 µM ([18]; NCI-H460, read-out: percent growth inhibition): 91.3% | GI50 ([19]; TK-10): 6.18 µM | inhibition at 10 µM ([19]; TK-10, read-out: percent growth inhibition): 60% | GI50 ([20]; HL-60): 2.73 µM | inhibition at 10 µM ([20]; HL-60, read-out: percent growth inhibition): 135% | GI50 ([21]; HCT-15): 1.92 µM | inhibition at 10 µM ([21]; HCT-15, read-out: percent growth inhibition): 141% | GI50 ([22]; K562): 3.14 µM | inhibition at 10 µM ([22]; K562, read-out: percent growth inhibition): 111% | GI50 ([23]; CAKI-1): 9.3 µM | inhibition at 10 µM ([23]; CAKI-1, read-out: percent growth inhibition): 98.3% | GI50 [24]: 3.98 µM | inhibition at 10 µM [24, 43]: 106% | GI50 ([25]; A549): 11.5 µM | inhibition at 10 µM ([25]; A549, read-out: percent growth inhibition): 53.1% | GI50 ([26]; OVCAR-5): 7.07 µM | inhibition at 10 µM ([26]; OVCAR-5, read-out: percent growth inhibition): 91.5% | inhibition at 10 µM [27]: 119% | GI50 ([28]; SNB-75): 3.34 µM | inhibition at 10 µM ([28]; SNB-75, read-out: percent growth inhibition): 69.9% | GI50 ([29]; IGROV-1): 3.32 µM | inhibition at 10 µM ([29]; IGROV-1, read-out: percent growth inhibition): 108% | GI50 ([30]; NCI-H522): 1.78 µM | inhibition at 10 µM ([30]; NCI-H522, read-out: percent growth inhibition): 170% | GI50 ([31]; HCC 2998): 3.66 µM | inhibition at 10 µM ([31]; HCC 2998, read-out: percent growth inhibition): 188% | GI50 ([32]; RXF 393): 4.67 µM | inhibition at 10 µM ([32]; RXF 393, read-out: percent growth inhibition): 177% | GI50 ([33]; MCF7): 1.58 µM | inhibition at 10 µM ([33]; MCF7, read-out: percent growth inhibition): 176% | GI50 [34]: 4.49 µM | inhibition at 10 µM [34, 43]: 76.9% | GI50 ([35]; U-251): 1.92 µM | inhibition at 10 µM ([35]; U-251, read-out: percent growth inhibition): 198% | GI50 [36]: 11.5 µM | inhibition at 10 µM [36, 43]: 42.6% | GI50 ([37]; SF-539): 6.15 µM | inhibition at 10 µM ([37]; SF-539, read-out: percent growth inhibition): 171% | GI50 [38]: 2.83 µM | inhibition at 10 µM [38, 43]: 91.2% | inhibition at 10 µM [39]: 74% | GI50 ([40]; MOLT-4): 3.16 µM | inhibition at 10 µM ([40]; MOLT-4, read-out: percent growth inhibition): 114% | GI50 ([41]; SK-MEL-28): 3.55 µM | inhibition at 10 µM ([41]; SK-MEL-28, read-out: percent growth inhibition): 145% | GI50 [42]: 2.15 µM | inhibition at 10 µM [42, 43]: 101%
